# Results taken from patent US20240150293A1, “SPIROCYCLOHEXANE DERIVATIVES, PHARMACEUTICAL COMPOSITIONS CONTAINING THEM AND THEIR USES AS ANTI-APOPTOTIC INHIBITORS” (LES LABORATOIRES SERVIER, priority 2021, published 2024).
# Molecular target: Mcl-1 protein (UniProtKB Q07820) (Homo sapiens (Human), UniProt Q07820)
# Test: Inhibition of Mcl-1 by the fluorescence polarisation assay (Example A, Method A)
# Type: binding
# Conditions: fluorescence polarization assay
# Procedure: The relative binding potency of each compound was determined via Fluorescence Polarisation (FP). The method utilised a Fluorescein labelled ligand (Fluorescein-βAla-Ahx-A-REIGAQLRRMADDLNAQY-OH; MW 2,765) which binds to the Mcl-1 protein (such that Mcl-1 corresponds to the UniProtKB® primary accession number: Q07820) leading to an increased anisotropy measured in milli-polarisation (mP) units using a reader. The addition of a compound which binds competitively to the same site as the ligand will result in a greater proportion of unbound ligand in the system indicated by a decrease in mP units.
# An 11 point serial dilution of each compound was prepared in DMSO and 2 μl transferred into flat bottomed, low binding, 384-well plate (final DMSO concentration 5%). 38 μl of buffer containing the Fluorescein labelled ligand (final concentration 1 nM) and Mcl-1 protein (final concentration 5 nM) was then added. Buffer components were 10 mM 4-(2-hydroxyethyl)-1-piperazineethanesulfonic acid [HEPES], 150 mM NaCl, pH 7.4 with the addition of 0.05% Tween 20.
# Assay plates were incubated for 2 hours at room temperature before FP was measured on a […] Synergy Neo reader ([…], Cut off 510 nm) and mP units calculated. The binding of increasing doses of test compound was expressed as a percentage reduction in mP compared to a window established between ‘5% DMSO only’ and ‘100% inhibition’ controls. 11-point dose response curves were plotted with XL-Fit software using a 4-Parameter Logistic Model (Sigmoidal Dose-Response Model) and the inhibitory concentrations that gave a 50% reduction in mP (IC50) were determined. The Ki values were determined from the IC50 values according to Cer et al, Nucleic Acids Res, 2009, 37 (WebServer issue): W441-W445. Inhibition constants (Ki) are determined from complete binding inhibition curves (cKi) or from estimated from incomplete binding inhibition curves (eKi) in most cases due to low activity.
# Chain of Mcl-1 protein (Q07820 whole entry): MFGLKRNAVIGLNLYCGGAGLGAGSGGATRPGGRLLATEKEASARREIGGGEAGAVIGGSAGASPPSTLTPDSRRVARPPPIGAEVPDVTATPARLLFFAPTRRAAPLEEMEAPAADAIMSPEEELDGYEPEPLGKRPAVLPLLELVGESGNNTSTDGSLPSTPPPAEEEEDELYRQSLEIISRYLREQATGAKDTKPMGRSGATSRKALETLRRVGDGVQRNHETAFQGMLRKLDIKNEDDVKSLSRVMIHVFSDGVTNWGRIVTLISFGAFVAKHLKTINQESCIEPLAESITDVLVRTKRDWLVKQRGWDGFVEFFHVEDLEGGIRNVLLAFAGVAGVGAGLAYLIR
row,Compound,Ki [nM]
1,"CCC1=C(C)[C@]2(CC[C@@](Nc3cccc(Cl)c3)(C(=O)O)CC2)c2ccccc21 [Example 206, (1s,4s)-4-(3-chloroanilino)-3′-ethyl-2′-methylspiro[cyclohexane-1,1′-indene]-4-carboxylic acid]",4680
2,"CCOCCCC1Cc2ccccc2[C@]12CC[C@@](Nc1cccc(Cl)c1)(C(=O)O)CC2 (stereo partly shown) [Example 156, (1r,4r)-4-(3-chloroanilino)-2′-(3-ethoxypropyl)-2′,3′-dihydrospiro[cyclohexane-1,1′-indene]-4-carboxylic acid]",621
3,"O=C(O)[C@]1(Nc2cccc(Cl)c2)CC[C@]2(CC1)C(Br)=Cc1cc(Cl)ccc12 [Example 135, (1s,4s)-2′-bromo-5′-chloro-4-(3-chloroanilino)spiro[cyclohexane-1,1′-indene]-4-carboxylic acid]",200
4,"O=C(O)[C@]1(Nc2cccc(Cl)c2)CC[C@]2(CC1)C(Cc1ccccc1)=Cc1ccccc12 [Example 168, (1r,4r)-2′-benzyl-4-(3-chloroanilino)spiro[cyclohexane-1,1′-indene]-4-carboxylic acid]",1670
5,"COc1cccc(N[C@]2(C(=O)O)CC[C@@]3(CC2)C(Br)=Cc2ccccc23)c1 [Example 86, (1s,4s)-2′-bromo-4-(3-methoxyanilino)spiro[cyclohexane-1,1′-indene]-4-carboxylic acid]",4100
6,"COc1cc(OC)cc(C2=Cc3ccccc3[C@]23CC[C@@](Nc2cccc(Cl)c2)(C(=O)O)CC3)c1 [Example 308, (1s,4s)-4-(3-chloroanilino)-2′-(3,5-dimethoxyphenyl)spiro[cyclohexane-1,1′-indene]-4-carboxylic acid]",2930

# Other lines, results leading:
row,Ki [nM],Compound
1,129,"Cc1cc(OCCCC2Cc3ccccc3[C@]23CC[C@@](Nc2cccc(Cl)c2)(C(=O)O)CC3)ccn1 (stereo partly shown) [Example 457, (1r,4r)-4-(3-chloroanilino)-2′-{3-[(2-methylpyridin-4-yl)oxy]propyl}-2′,3′-dihydrospiro[cyclohexane-1,1′-indene]-4-carboxylic acid]"
2,301,"Cc1ccc(C2Cc3ccccc3C23CCC(Nc2cccc(Br)c2)(C(=O)O)CC3)o1 (stereo not shown) [Example 239, 4-(3-bromoanilino)-2′-(5-methylfuran-2-yl)-2′,3′-dihydrospiro[cyclohexane-1,1′-indene]-4-carboxylic acid]"
3,5130,"O=C(O)[C@]1(Nc2cccc(Cl)c2)CC[C@@]2(CC1)c1ccccc1C[C@@H]2c1ccc2occc2c1 [Example 282, (1r,2′R,4R)-2′-(1-benzofuran-5-yl)-4-(3-chloroanilino)-2′,3′-dihydrospiro[cyclohexane-1,1′-indene]-4-carboxylic acid]"
4,1740,"O=C(O)[C@]1(Nc2cccc(Cl)c2)CC[C@]2(CC1)C(c1cccc(O)c1)=Cc1ccccc12 [Example 304, (1s,4s)-4-(3-chloroanilino)-2′-(3-hydroxyphenyl)spiro[cyclohexane-1,1′-indene]-4-carboxylic acid]"
5,2440,"COc1cc(OC)cc([C@@H]2Cc3ccccc3[C@]23CC[C@@](Nc2cccc(Cl)c2)(C(=O)O)CC3)c1 [Example 336, (1r,2′S,4S)-4-(3-chloroanilino)-2′-(3,5-dimethoxyphenyl)-2′,3′-dihydrospiro[cyclohexane-1,1′-indene]-4-carboxylic acid]"
6,9170,"Cc1ccc(C2Cc3ccccc3[C@]23CC[C@@](Nc2cccc(Cl)c2)(C(=O)O)CC3)cc1 (single isomer, unassigned) [Example 307, (1r,4r)-4-(3-chloroanilino)-2′-(4-methylphenyl)-2′,3′-dihydrospiro[cyclohexane-1,1′-indene]-4-carboxylic acid]"
7,214,"O=C(O)[C@]1(Nc2cccc(Cl)c2)CC[C@@]2(CC1)c1ccccc1CC2CCOc1ccncc1F (stereo partly shown) [Example 188, (1r,4r)-4-(3-chloroanilino)-2′-{2-[(3-fluoropyridin-4-yl)oxy]ethyl}-2′,3′-dihydrospiro[cyclohexane-1,1′-indene]-4-carboxylic acid]"
